In US5736629A, “Herbicide resistant rice” (priority 1997, dated 1998):

Tests used:
Type in all cases: in vivo
ATCC 75295 rice line = assay: Field plot test with AHAS-inhibiting herbicides, ATCC 75295
Procedure: The resistance of these plants to several other AHAS-inhibiting herbicides was also tested. Nine-foot-long field plots were planted with seven rows of rice per plot. The test included nine check rice varieties, and the ATCC 75295 rice line. A shielded spray boom was used to apply herbicide, spraying six of the seven rows in each plot. The four herbicides used were Pursuit (imazethapyr: (±)-2-[4,5-dihydro-4-methyl-4-(1-methylethyl)-5-oxo-1H-imidazol-2-yl]-5-ethyl-3-pyridinecarboxylic acid); Scepter (imazaquin: 2-[4,5-dihydro-4-methyl-4-(1-methylethyl)-5-oxo-1H-imidazol-2-yl]-3-quinolinecarboxylic acid); Accent (nicosulfuron: 2-(((((4,6-dimethoxypyrimidin-2-yl)aminocarbonyl)) aminosulfonyl))-N,N-dimethyl-3-pyridinecarboxamide); and Beacon (primisulfuron: 3-[4,6-bis(difluoromethoxy)-pyrimidin-2-yl]-1-(2-methoxycarbonylphenylsulfonyl)urea). The herbicides were applied to two replicate plots for each herbicide when the rice was at the three-leaf stage of maturity. Two replicate plots of each check variety and of the resistant line were left unsprayed as controls. The Accent treatment used 0.67 ounce of product (0.50 ounce active ingredient) per acre, with 0.25% nonionic surfactant. The Pursuit treatment used four ounces of product (1.00 ounce active ingredient) per acre, with 0.25% nonionic surfactant. The Scepter treatment used one pint of product (3.00 ounces active ingredient) per acre, with 0.25% nonionic surfactant. The Beacon treatment used 0.76 ounce of product (0.57 ounce active ingredient) per acre, with 0.25% nonionic surfactant. […] A similar test with the same rice varieties and the ATCC 75295 line was conducted at the five-leaf stage of development (i.e., plants fifteen days older than in the test described above), using Accent and Pursuit at the rates given above. […] The ATCC 75295 line was resistant only when herbicide was applied post-emergence.

[1] = system: progeny of the mutant rice plant (ATCC 97523); assay: Subsequent greenhouse and field testing of progeny of the surviving plant; conditions: herbicides applied either pre-emergence or post-emergence
Source text: (Imazamox is sold by American Cyanamid under the trade name Raptor, and has as active ingredient (+)-5-methoxymethyl-2-(4-isopropyl-4-methyl-5-oxo-2-imidazolin-2-yl) nicotinic acid. Imazameth is sold by American Cyanamid under the trade name Cadre, and has as active ingredient (±)-2-[4,5-dihydro-4-methyl-4-(1-methyl-ethyl)-5-oxo-1H-imidazol-2-yl]- 5-methyl-3-pyridinecarboxylicacid;alternatechemicalname (±)-2-(4-isopropyl-4-methyl-5-oxo-2-imidazolin-2-yl)-5-methylnicotinic acid). Imazapyr is sold by American Cyanamid under the trade name Arsenal, and has active ingredient 2-[4,5-dihydro-4-methyl-4-(1-methylethyl)-5-oxo-1H-imidazol-2-yl]-3-pyridinecarboxylic acid) This line is resistant to herbicides applied either pre-emergence or post-emergence.

[2] = system: mutagenised rice seedlings of ten rice varieties; assay: Field screen of mutagenised rice seedlings, all other plants; conditions: 2X treatment: nicosulfuron 0.063 lb a.i. per acre, imazethapyr 0.125 lb a.i. per acre; 0.25% non-ionic surfactant; 3-4 leaf stage; about four weeks later
Source text: The second resistance mechanism resulted from inducing mutations in seeds of each of ten rice varieties. Mutations were induced by exposure either to gamma rays or to the chemical mutagen ethyl methanesulfonate (EMS). Ten-pound lots of seed of each variety were subjected to 25 k-rad of gamma irradiation from a Cobalt-60 source at the Nuclear Science Center, Louisiana State University, Baton Rouge, La. prior to planting. An additional ten pounds of seed of each variety was divided into three equal portions; and each portion was soaked for 16 hours in either 0.1%, 0.5%, or 1% EMS immediately prior to planting. Several hundred pounds of seed were harvested from plants grown from the seeds subjected to these mutagenic treatments.
The following spring the harvested seed was planted in strips in a field planting occupying a total of about three acres. At the 3-4 leaf stage of seedling development, herbicides were applied to screen for herbicide-resistant mutants. Half of the seedlings of each variety were sprayed with a 2X treatment of nicosulfuron, and half were sprayed with a 2X treatment of imazethapyr, in both cases by a tractor-mounted sprayer. Nicosulfuron was applied at the rate of 0.063 lb active ingredient (a.i.) per acre, and imazethapyr was applied at 0.125 lb a.i. per acre. Non-ionic surfactant (0.25%) was added to each spray solution. […]

[3] = subsequent tests (data not shown)
[4] = five-leaf stage (plants fifteen days older), same rates as in the three-leaf test
[5] = three-leaf stage, per acre a.i.: Accent 0.50 ounce, Pursuit 1.00 ounce, Scepter 3.00 ounces, Beacon 0.57 ounce, 0.25% nonionic surfactant

SMILES | Resistance of the rice line (in words) (ATCC 75295 rice line; [3]) | Resistance of the rice line (in words) [1] | Resistance of the rice line (in words) (ATCC 75295 rice line; [4]) | Resistance of the rice line (in words) (ATCC 75295 rice line; [5]) | Symptoms of injury (in words) [2]
CC(C)C1(C)N=C(c2ncccc2C(=O)O)NC1=O (stereo not shown) [imazapyr, 2-[4,5-dihydro-4-methyl-4-(1-methylethyl)-5-oxo-1H-imidazol-2-yl]-3-pyridinecarboxylic acid] | exhibited resistance | resistance |  |  | 
COCc1cnc(C2=NC(C)(C(C)C)C(=O)N2)c(C(=O)O)c1 (single isomer, unassigned; (+)) [imazamox, (+)-5-methoxymethyl-2-(4-isopropyl-4-methyl-5-oxo-2-imidazolin-2-yl) nicotinic acid] |  | resistance |  |  | 
Cc1cnc(C2=NC(C)(C(C)C)C(=O)N2)c(C(=O)O)c1 (racemic) [imazameth, (±)-2-[4,5-dihydro-4-methyl-4-(1-methyl-ethyl)-5-oxo-1H-imidazol-2-yl]-5-methyl-3-pyridinecarboxylicacid] | exhibited resistance | resistance |  |  | 
COc1cc(OC)nc(NC(=O)NS(=O)(=O)c2ncccc2C(=O)N(C)C)n1 [nicosulfuron, 2-(((((4,6-dimethoxypyrimidin-2-yl)aminocarbonyl))aminosulfonyl))-N,N-dimethyl-3-pyridinecarboxamide] |  | resistance | excellent resistance | excellent resistance | either severely injured or dead
CC(C)C1(C)N=C(c2nc3ccccc3cc2C(=O)O)NC1=O (stereo not shown) [imazaquin, 2-[4,5-dihydro-4-methyl-4-(1-methylethyl)-5-oxo-1H-imidazol-2-yl]-3-quinolinecarboxylic acid] |  | resistance | good resistance | good resistance | 
COC(=O)c1ccccc1S(=O)(=O)NC(=O)Nc1nc(OC(F)F)cc(OC(F)F)n1 [primisulfuron, 3-[4,6-bis(difluoromethoxy)-pyrimidin-2-yl]-1-(2-methoxycarbonylphenylsulfonyl)urea] |  |  |  | lower, but still significantly greater than that of the check rice varieties | 
